Measured values: patent US20230257347A1 (priority 2020, published 2023)
pEC50, pIC50, pKi: −log10 of the molar value. Read-outs that look alike come from different tables or passages of the source.

Columns and labels:
MAOA = molecular target: T1, MAOA (Homo sapiens, UniProt P21397); conditions: cited from earlier work; for pIC50: read-out: MAOA IC50, Table 10, Source (1) Wagmann et al. 2017
T1 sequence (P21397 1-527): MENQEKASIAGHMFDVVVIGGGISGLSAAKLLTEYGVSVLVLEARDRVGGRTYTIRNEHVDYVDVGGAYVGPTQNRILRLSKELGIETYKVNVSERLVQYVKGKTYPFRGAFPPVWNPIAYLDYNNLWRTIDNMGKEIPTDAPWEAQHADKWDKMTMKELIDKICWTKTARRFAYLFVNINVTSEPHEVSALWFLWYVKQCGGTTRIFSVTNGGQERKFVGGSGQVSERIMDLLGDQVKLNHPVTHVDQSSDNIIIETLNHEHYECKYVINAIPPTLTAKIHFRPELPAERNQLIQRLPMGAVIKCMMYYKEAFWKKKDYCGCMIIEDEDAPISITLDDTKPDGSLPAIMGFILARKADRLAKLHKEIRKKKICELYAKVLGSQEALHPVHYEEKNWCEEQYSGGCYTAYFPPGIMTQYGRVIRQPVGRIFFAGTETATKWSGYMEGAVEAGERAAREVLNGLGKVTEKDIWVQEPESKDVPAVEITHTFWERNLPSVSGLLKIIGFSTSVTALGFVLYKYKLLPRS

[1] = molecular target: T2, Monoamine oxidase type A (MAOA) (Homo sapiens, UniProt P21397); assay: Enzymatic assay, MAOA (kynuramine substrate); format: biochemical; conditions: for Hill: Hill of MAOA inhibition curve, Original data; for MAOA inhibition (MAOI or not, in words): original data
T2 construct: purchased Sigma
T2 sequence (P21397 1-527): T1 sequence (P21397 1-527)

neuritogenesis = conditions: cited from earlier work
[2] = molecular target: T3, human 5-HT transporter (hSERT) (Homo sapiens, UniProt P31645); assay: hSERT antagonist radioligand assay ([3H]imipramine), CHO cells; format: binding
T3 construct: expressed in transfected cells; host or cells: CHO
Source text: Interactions with these transporters were therefore separately measured using two additional types of assays: an antagonist radioligand assay of inhibition of the human 5-HT transporter (hSERT) expressed in CHO cells (Tatsumi, M. et al. (1999), Eur. J. Pharmacol., 368: 277-283) and an assay measuring release of [^3H] […] While the former is sensitive to classic reuptake inhibition, the latter can detect the effects of substrates, which also induce release. Specific assay steps and reference compounds are given below for each assay type.
Three tryptamine derivatives were evaluated for inhibiting the human 5-HT transporter (hSERT) as expressed in CHO cells using an antagonist radioligand assay (Tatsumi, M. et al. 1999, Eur. J. Pharmacol., 368: 277-283). […] Test compounds were assayed in two trials at 3.0E-10, 3.0E-9, 3.0E-8, 3.0E-7, 3.0E-6, and 3.0E-5 M.

human SERT = molecular target: T4, human SERT (Homo sapiens, UniProt P31645); assay: hSERT release of [3H]serotonin, CHO cells; format: cell-based
T4 construct: expressed in transfected cells

human DAT = molecular target: T5, human DAT (Homo sapiens, UniProt Q01959); assay: hDAT release of [3H]dopamine, CHO cells; format: cell-based; conditions: for DAT/SERT ratio: (DAT EC50)^−1/(SERT EC50)^−1, larger numbers indicate higher DAT selectivity
T5 construct: expressed in transfected cells

[3] = molecular target: T6, Nicotinic acetylcholine Receptor α4 β2 (nAChR(a4/b2)) (Homo sapiens, UniProt P17787+P43681); assay: cell-based; conditions: nAChR(a4/b2), Ion Channel, blocker; read-out: IC50 (μM) Antag./Blocker/Inhibitor
T6 construct: expressed in transfected cells

[4] = molecular target: Gamma-aminobutyric acid Receptor A (GABAA) (Homo sapiens, UniProt P14867+P47870); format: cell-based; conditions: Ion Channel, blocker, read-out: IC50 (μM) Antag./Blocker/Inhibitor
Chain of Gamma-aminobutyric acid Receptor A (GABAA) (P14867 28-456): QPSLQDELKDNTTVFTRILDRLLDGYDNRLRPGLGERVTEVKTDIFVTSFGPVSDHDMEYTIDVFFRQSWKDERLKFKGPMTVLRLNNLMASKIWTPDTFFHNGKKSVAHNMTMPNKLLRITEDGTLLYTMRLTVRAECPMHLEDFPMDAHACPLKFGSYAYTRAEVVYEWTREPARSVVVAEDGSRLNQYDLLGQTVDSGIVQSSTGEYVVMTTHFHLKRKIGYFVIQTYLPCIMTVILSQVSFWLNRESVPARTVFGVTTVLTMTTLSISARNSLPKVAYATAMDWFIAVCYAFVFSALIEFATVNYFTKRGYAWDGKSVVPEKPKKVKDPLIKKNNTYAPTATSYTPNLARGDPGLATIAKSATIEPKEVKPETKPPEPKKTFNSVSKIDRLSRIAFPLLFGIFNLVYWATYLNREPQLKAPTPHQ
Chain of Gamma-aminobutyric acid Receptor A (GABAA) (P47870 26-512): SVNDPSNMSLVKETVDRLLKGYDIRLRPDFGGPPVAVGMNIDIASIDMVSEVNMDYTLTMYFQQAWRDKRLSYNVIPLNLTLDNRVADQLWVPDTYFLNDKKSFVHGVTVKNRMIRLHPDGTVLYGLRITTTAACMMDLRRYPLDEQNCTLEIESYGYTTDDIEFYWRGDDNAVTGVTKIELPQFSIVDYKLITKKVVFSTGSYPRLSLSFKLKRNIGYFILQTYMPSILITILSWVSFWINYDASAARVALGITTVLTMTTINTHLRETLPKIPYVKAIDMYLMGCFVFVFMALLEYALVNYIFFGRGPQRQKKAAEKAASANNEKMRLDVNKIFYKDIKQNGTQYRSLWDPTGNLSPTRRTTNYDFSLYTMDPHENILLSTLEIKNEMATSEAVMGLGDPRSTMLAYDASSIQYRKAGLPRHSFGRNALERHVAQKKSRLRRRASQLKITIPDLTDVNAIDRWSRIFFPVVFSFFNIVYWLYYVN
Chain of Gamma-aminobutyric acid Receptor A (GABAA) (P18507 40-475 partner): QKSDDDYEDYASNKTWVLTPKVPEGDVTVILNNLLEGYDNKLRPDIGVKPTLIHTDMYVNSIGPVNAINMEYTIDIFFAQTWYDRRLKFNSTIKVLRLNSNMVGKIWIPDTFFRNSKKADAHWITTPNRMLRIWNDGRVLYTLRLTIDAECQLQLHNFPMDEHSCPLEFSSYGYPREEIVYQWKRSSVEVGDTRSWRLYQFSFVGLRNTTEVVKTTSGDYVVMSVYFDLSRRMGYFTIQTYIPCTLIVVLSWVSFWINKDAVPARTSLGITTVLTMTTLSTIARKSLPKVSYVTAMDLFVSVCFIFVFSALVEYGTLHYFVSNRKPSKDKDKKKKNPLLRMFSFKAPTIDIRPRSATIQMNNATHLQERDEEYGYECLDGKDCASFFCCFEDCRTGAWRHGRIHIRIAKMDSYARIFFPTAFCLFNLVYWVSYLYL

T4 sequence (P31645 whole entry): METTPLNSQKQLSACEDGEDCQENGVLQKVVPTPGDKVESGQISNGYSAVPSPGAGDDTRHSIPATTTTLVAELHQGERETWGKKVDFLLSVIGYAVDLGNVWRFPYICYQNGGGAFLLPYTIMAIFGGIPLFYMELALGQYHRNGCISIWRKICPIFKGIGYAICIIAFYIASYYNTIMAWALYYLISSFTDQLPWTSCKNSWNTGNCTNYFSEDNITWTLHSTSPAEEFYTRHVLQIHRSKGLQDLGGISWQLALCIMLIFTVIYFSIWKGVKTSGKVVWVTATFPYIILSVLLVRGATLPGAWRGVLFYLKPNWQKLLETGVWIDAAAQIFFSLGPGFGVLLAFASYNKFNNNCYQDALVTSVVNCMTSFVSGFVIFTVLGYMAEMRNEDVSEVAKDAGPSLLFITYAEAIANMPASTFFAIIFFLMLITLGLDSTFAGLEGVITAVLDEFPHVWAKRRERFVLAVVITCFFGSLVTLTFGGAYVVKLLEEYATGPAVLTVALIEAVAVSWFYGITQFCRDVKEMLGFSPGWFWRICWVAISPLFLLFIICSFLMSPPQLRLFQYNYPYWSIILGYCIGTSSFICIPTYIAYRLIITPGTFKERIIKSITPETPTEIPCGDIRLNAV
T3 sequence (P31645 whole entry): as above
T5 sequence (Q01959 whole entry): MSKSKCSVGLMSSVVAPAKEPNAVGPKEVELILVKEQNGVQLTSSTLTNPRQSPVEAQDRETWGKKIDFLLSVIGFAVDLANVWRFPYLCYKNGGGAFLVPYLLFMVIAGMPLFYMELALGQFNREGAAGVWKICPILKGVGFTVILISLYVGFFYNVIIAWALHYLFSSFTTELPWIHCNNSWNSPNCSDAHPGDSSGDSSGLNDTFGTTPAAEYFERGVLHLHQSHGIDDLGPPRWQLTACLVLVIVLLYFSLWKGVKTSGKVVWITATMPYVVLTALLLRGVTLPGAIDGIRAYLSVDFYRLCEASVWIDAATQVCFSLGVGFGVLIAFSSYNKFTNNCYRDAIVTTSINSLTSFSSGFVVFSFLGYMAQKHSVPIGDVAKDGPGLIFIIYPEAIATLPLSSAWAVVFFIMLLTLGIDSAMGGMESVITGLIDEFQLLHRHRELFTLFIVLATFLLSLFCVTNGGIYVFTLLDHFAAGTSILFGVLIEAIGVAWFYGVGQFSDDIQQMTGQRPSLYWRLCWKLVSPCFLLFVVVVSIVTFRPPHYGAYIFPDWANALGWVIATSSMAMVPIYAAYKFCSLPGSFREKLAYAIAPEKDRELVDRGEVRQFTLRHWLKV
T6 sequence (P43681 29-627 limits assumed): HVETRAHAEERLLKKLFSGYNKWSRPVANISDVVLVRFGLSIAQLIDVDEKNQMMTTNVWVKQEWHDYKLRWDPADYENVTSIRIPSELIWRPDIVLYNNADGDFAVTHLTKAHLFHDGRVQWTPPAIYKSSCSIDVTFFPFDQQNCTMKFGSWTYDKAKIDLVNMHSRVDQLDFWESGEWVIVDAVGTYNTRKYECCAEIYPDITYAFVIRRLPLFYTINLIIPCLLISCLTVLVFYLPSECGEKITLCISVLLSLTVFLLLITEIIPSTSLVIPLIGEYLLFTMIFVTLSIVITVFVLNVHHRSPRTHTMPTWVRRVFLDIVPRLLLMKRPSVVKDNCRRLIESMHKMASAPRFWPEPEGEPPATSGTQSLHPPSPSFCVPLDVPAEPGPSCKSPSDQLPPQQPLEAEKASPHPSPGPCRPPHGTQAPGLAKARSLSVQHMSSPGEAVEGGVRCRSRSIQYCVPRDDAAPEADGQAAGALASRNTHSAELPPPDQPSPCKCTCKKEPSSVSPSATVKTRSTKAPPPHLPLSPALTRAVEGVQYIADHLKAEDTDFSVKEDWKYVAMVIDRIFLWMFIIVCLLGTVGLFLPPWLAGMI
T6 sequence (P17787 26-502): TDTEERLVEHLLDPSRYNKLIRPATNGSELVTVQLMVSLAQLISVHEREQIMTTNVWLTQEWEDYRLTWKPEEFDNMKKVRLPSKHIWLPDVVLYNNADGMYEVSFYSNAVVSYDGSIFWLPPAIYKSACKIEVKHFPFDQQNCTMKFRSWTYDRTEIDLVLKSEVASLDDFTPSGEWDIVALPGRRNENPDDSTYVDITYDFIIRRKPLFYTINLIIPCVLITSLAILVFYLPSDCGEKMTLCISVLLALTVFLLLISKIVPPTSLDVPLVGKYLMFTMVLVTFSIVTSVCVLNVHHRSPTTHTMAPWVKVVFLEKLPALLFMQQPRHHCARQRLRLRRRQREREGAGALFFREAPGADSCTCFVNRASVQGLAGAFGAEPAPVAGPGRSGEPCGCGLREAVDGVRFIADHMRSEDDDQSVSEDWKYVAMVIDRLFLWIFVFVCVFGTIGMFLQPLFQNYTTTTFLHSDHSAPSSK

CC(N)Cc1c[nH]c2ccccc12 (stereo not drawn) [1-(1H-indol-3-yl)propan-2-amine]
pIC50 (MAOA): 6.42

CC(N)Cc1c[nH]c2ccc(Br)cc12 (stereo not drawn) [1-(5-bromo-1H-indol-3-yl)propan-2-amine]
pIC50 (MAOA): 5.89

CC(N)Cc1c[nH]c2ccc(Cl)cc12 (stereo not drawn) [1-(5-chloro-1H-indol-3-yl) propan-2-amine]
pIC50 (MAOA): 6.60

CC(N)Cc1c[nH]c2ccc(F)cc12 (stereo not drawn) [1-(5-fluoro-1H-indol-3-yl) propan-2-amine]
MAOA inhibition (MAOI or not, in words) (MAOA; previously reported data): are MAOIs | pIC50 (MAOA): 6.35

CNCC(=O)c1c[nH]c2ccc(F)cc12 [1-(5-fluoro-1H-indol-3-yl)-2-(methylamino)ethan-1-one, reference compound]
Hill [1]: 1.02 | pIC50 ([1]; Table 10, Source: Original data, read-out: MAOA IC50): 5.46 | MAOA inhibition (MAOI or not, in words) [1]: is also an MAOI

CCC(N)Cc1c[nH]c2ccc(F)cc12 (stereo not drawn) [1-(5-fluoro-1H-indol-3-yl)butan-2-amine, reference compound]
pIC50 [1]: 5.61 | Hill [1]: 0.89

Cc1[nH]c2ccc(F)cc2c1CC(C)N (stereo not drawn) [1-(5-fluoro-2-methyl-1H-indol-3-yl)propan-2-amine]
pIC50 (MAOA): 5.39

Cc1ccc2[nH]cc(CC(C)N)c2c1 (stereo not drawn) [1-(5-methyl-1H-indol-3-yl) propan-2-amine]
pIC50 (MAOA): 5.82

CC(N)Cc1c[nH]c2cc(F)ccc12 (stereo not drawn) [1-(6-fluoro-1H-indol-3-yl) propan-2-amine]
pIC50 (MAOA): 5.74

CCC(N)C(=O)c1c[nH]c2ccc(F)cc12 (stereo not drawn) [2-amino-1-(5-fluoro-1H-indol-3-yl) butan-1-one]
pIC50 [1]: < 4.52

CNC(C)Cc1ccc2c(c1)OCO2 (stereo not drawn) [MDMA, 3,4-methylenedioxymethamphetamine]
pEC50 (neuritogenesis; Ly et al. Cell reports 2018, Figure S3, read-out: EC50 for promoting neuritogenesis): 8.13 | Emax for promoting neuritogenesis (neuritogenesis; relative to ketamine, Ly et al. 2018): approximately twice that of ketamine

CNC(C)Cc1c[nH]c2ccc(F)cc12 (stereo not drawn) [[1-(5-fluoro-1H-indol-3-yl)propan-2-yl](methyl)amine, reference compound]
pIC50 [1]: 6.35 | Hill [1]: 1.01 | MAOA inhibition (MAOI or not, in words) [1]: are MAOIs

CNC(C)C(=O)c1c[nH]c2ccc(F)cc12 (stereo not drawn) [drawing 183]
pIC50 [2]: 5.46 | pKi [2]: 5.80

CNC(C)C(=O)c1c[nH]c2ccc(Br)cc12 (stereo not drawn) [drawing 184]
pIC50 [2]: 5.25 | pKi [2]: 5.59

CNC(C)C(=O)c1c[nH]c2ccc(Cl)cc12 (stereo not drawn) [drawing 185]
pIC50 [2]: 5.60 | pKi [2]: 5.96

CNC(C)C(=O)c1c[nH]c2ccc(F)cc12 (stereo not drawn) [drawing 186]
pEC50 (human SERT): 6.72 | pEC50 (human DAT): 6.21 | DAT/SERT ratio (human DAT): 0.31

CNC(C)C(=O)c1c[nH]c2ccc(Br)cc12 (stereo not drawn) [drawing 187]
pEC50 (human SERT): 6.53 | pEC50 (human DAT): 5.68 | DAT/SERT ratio (human DAT): 0.14

CNC(C)C(=O)c1c[nH]c2ccc(Cl)cc12 (stereo not drawn) [drawing 188]
pEC50 (human SERT): 6.70 | pEC50 (human DAT): 6.06 | DAT/SERT ratio (human DAT): 0.23

Dihydro-AY-erythroidine [reference compound]
IC50 [3]: 0.682 µM

Picrotoxin
IC50 [4]: 2.78 µM
